The record followed here is patent US20260223850A1, “SUBSTITUTED PYRROLIDONE COMPOUND, PREPARATION METHOD THEREFOR, COMPOSITION AND APPLICATION THEREOF” (QINGDAO KINGAGROOT CHEMICAL COMPOUND CO., LTD., priority 2023, published 2026).

Read-outs that look alike come from different tables or passages of the source.

Common to all, as to assay type: in vivo
The subject of one series is weeds. Put plainly: Activity assay of compositions, soil sealing treatment (S). The source says:
The required active ingredient B was purchased from a reagent company or a technical material manufacturer or synthesized by a conventional method. The technical materials were all dissolved with acetone solvents and diluted with aqueous solution of 0.1% Tween® 80 emulsifier, which should be used immediately after dilution.
The test soil was quantitatively filled to ¾ of a pot, and then watered from the bottom of the pot to completely wet the soil to saturation. The seeds of the test weeds were accelerated to Just germinate, and then evenly and quantitatively broadcasted on the soil surface, covered with 0.5-1 cm soil according to the sizes of the seeds, and ready for use 72 hours after broadcasting.
Each treatment was repeated 4 times. Four pots were treated each time with 20 weed seeds per pot.
The seeds were planted in a 20 cm*30 cm square box. Water was added to 2-3 cm deep after sowing, then injected with the drug agent using a syringe, stirred evenly, and left to stand for 2 days to dry naturally. The soil was kept moist afterwards.
A method for investigating absolute numbers was employed. The whole seedlings of the survival weeds were cut along the soil surface with a blade, and the fresh weight of the weeds was weighed by an analytical balance. For dead weeds, the fresh weight thereof was considered zero.
The investigation was performed 21 days after the treatment for once in total.
The theoretical fresh weight inhibition rate of a mixed combination of each treatment was calculated by the Gowing method (E0═X+Y−X*Y/100), then compared with the measured inhibition rate (E) to evaluate the type of the combined action of the combination of the two on weeds. The combined action was a synergistic effect when E−E0 >10%; an antagonistic effect when E−E0<−10%; an additional effect when −10%≤E−E0≤10%. An optimal ratio was determined according to factors such as actual control effects, characteristics of herbicides, balance of the formulation, etc.

The next series concerns Leptochloa chinensis. Put plainly: Seedling stage sealing experiment for water-seeding. Conditions: 120 g a.i./ha, 15 days, fresh weight control rate. The gist of the method: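 Seeds sown in soil-filled bowls kept moist in water-filled boxes; compound in acetone diluted with water and spray-applied at 120, 60, 30 and 15 g a.i./ha, triplicate. After 15 days in greenhouse, fresh-weight growth control scored on a 0–9 scale (9 = dead, 0 = no effect), averaged.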

The test system of the next series is Echinochloa phyllopogon. The description is as above. As to conditions: 120 g a.i./ha, seedling stage sealing, 15 days, fresh weight control rate. The gist of the method: (§1)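 Water-seeding seedling stage test: broadcast seeds, cover with soil, keep bowls moist in a water box; spray compound (acetone, diluted in water) at 120, 60, 30, 15 g a.i./ha; culture 15 d in greenhouse; grade 0–9 by fresh-weight growth control; mean of 3.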

The subject of a further series is Digitaria sanguinalis. The series is described as above. As to conditions: 120 g a.i./ha, seedling stage sealing, 15 days, fresh weight control rate. The gist of the method: as §1
For another series, the system named is Echinochloa crusgalli. The description is as above. As to conditions: 120 g a.i./ha, seedling stage sealing, 15 days, fresh weight control rate.
The test system of a further series is Huaidao (rice cultivar). Put plainly: Seedling stage sealing experiment for water-seeding (crop safety). As to conditions: 120 g a.i./ha, seedling stage sealing, 15 days, fresh weight control rate. Put shortly: as §1
[1] abbreviates: soil, Rotala indica, S, B 15 g a.i./ha, read-out: Control effect of B applied alone in a corresponding dose (%).
[2] abbreviates: soil, Rotala indica, S, B 30 g a.i./ha, read-out: Control effect of B applied alone in a corresponding dose (%).
Where [3] appears, read: Paspalum distichum, soil, read-out: Control effect of B applied alone in a corresponding dose (%).
The mark [4] stands for this setting: Rotala indica, S, B 15 g a.i./ha.
Setting [5] is: Rotala indica, S, B 30 g a.i./ha.
[6] abbreviates: soil, Rotala indica, S, B 150 g a.i./ha, read-out: Control effect of B applied alone in a corresponding dose (%).

For the compound `CCC[S@@+]([O-])c1c(C(F)(F)F)ccc(C(=O)Nc2nnc(C)o2)c1F`, the pest or weed control at 15 g/ha in the series on weeds (setting [1]) turned out to be 35.8%. Further, the pest or weed control at 30 g/ha in the series with weeds (setting [2]) worked out at 46.6%.
As to `CC1(C)CON(Cc2ccc(Cl)cc2Cl)C1=O` [Bixlozone, bixlozone], the “Control effect of B applied alone in a corresponding dose (%)” value (“Control effect of B applied alone … (%)” for short) in the series with weeds (Paspalum distichum, S, B 30 g a.i./ha) amounted to 41.7%; in the series on weeds (Paspalum distichum, S, B 60 g a.i./ha), 52.8%.
Turning to `CN1C[C@H](c2cc(C(F)(F)F)cc(C(F)(F)F)c2)[C@@H](C(=O)Nc2cnn(C)c2Cl)C1=O` [295′], the “Leptochloa chinensis activity level (growth control rate)” value (shortened to “Leptochloa chinensis activity level”) in the series with Leptochloa chinensis came to 9. For the same compound, the “Echinochloa phyllopogon activity level (growth control rate)” value (“Echinochloa phyllopogon activity level” below) in the series on Echinochloa phyllopogon was 6 (Level 6: growth control rate greater than or equal to 70% and less than 80%). Besides, the “Digitaria sanguinalis activity level (growth control rate)” value (from here on “Digitaria sanguinalis activity level”) with Digitaria sanguinalis turned out to be 9. The “Echinochloa crusgalli activity level (growth control rate)” value (“Echinochloa crusgalli activity level” below) in the series with Echinochloa crusgalli was 7 (Level 7: growth control rate greater than or equal to 80% and less than 90%).
As for `Cc1cccc([C@H]2CN(C)C(=O)[C@@H]2C(=O)Nc2cnn(C(F)F)c2Cl)c1` [131′], in the series on Leptochloa chinensis, the “Leptochloa chinensis activity level” value is on record as 9. The “Echinochloa phyllopogon activity level” value with Echinochloa phyllopogon worked out at 9. Also, in the series with Digitaria sanguinalis, the “Digitaria sanguinalis activity level” value is reported as 9. In addition, in the series on Echinochloa crusgalli, the “Echinochloa crusgalli activity level” value is on record as 9.
`COc1c(Cl)ccc(C2CN(C)C(=O)C2C(=O)Nc2cnn(C)c2Cl)c1F` (stereo not drawn) [Compound 118]: the “Leptochloa chinensis activity level” value in the series with Leptochloa chinensis was 6 (Level 6: growth control rate greater than or equal to 70% and less than 80%). The “Echinochloa phyllopogon activity level” value in the series with Echinochloa phyllopogon was 6 (Level 6: growth control rate greater than or equal to 70% and less than 80%). Also, the “Digitaria sanguinalis activity level” value in the series with Digitaria sanguinalis stood at 9. The “Echinochloa crusgalli activity level” value in the series with Echinochloa crusgalli came to 9.
Regarding `CCNc1nc(NCC)nc(SC)n1` [Simetryn, simetryn], in the series with weeds (setting [3]), the pest or weed control at 75 g/ha was 45.5% and the pest or weed control at 150 g/ha was found to be 54.8%.
For `Cc1cc(C)cc(C2CN(C)C(=O)C2C(=O)Nc2cnn(C)c2Cl)c1` (stereo not drawn) [Compound 117], the “Leptochloa chinensis activity level” value in the series with Leptochloa chinensis is 9. Further, the “Huaidao (rice cultivar) plant damage level” value in the series on Huaidao (rice cultivar) was 0. Moreover, the “Echinochloa phyllopogon activity level” value in the series on Echinochloa phyllopogon was 6 (Level 6: growth control rate greater than or equal to 70% and less than 80%). The “Digitaria sanguinalis activity level” value in the series with Digitaria sanguinalis is 9. In addition, in the series on Echinochloa crusgalli, the “Echinochloa crusgalli activity level” value worked out at 9.
As to `COc1c(Cl)ccc(-c2nc(C(=O)OCc3ccccc3)c(Cl)c(N)c2F)c1F` [Florpyrauxifen-benzyl, florpyrauxifen-benzyl], the “Control effect of B applied alone … (%)” value with weeds (Alisma plantago-aquatica, S, B 3.75 g a.i./ha) is recorded as 62.8%; in the series on weeds (Alisma plantago-aquatica, S, B 7.5 g a.i./ha), 74.6%.
In the case of `CC1(C)CON(Cc2ccccc2Cl)C1=O` [Clomazone, clomazone], in the series with weeds (soil, Paspalum distichum, S, B 30 g a.i./ha, read-out: Control effect of B applied alone in a corresponding dose (%)), the pest or weed control at 30 g/ha is 44.3%. For the same compound, in the series with weeds (soil, Paspalum distichum, S, B 60 g a.i./ha, read-out: Control effect of B applied alone in a corresponding dose (%)), the pest or weed control at 60 g/ha worked out at 51.5%.
As for oxadiargyl, the “Control effect of B applied alone … (%)” value is 47.2% with weeds (Rotala indica, S, B 7.5 g a.i./ha) and 58.6% with weeds (setting [4]).
For `C=CCn1ncc(NC(=O)[C@H]2C(=O)N(C)C[C@@H]2c2cccc(C(F)(F)F)c2)c1Cl` [162′], the “Leptochloa chinensis activity level” value with Leptochloa chinensis turned out to be 9. The “Digitaria sanguinalis activity level” value in the series on Digitaria sanguinalis is 8 (Level 8: growth control rate greater than or equal to 90% and less than 100%). Further, the “Echinochloa crusgalli activity level” value in the series with Echinochloa crusgalli turned out to be 9.
As to `CS(=O)(=O)c1ccc(C(=O)C2C(=O)CCCC2=O)c(Cl)c1COCC1CCCO1` (stereo not drawn) [Tefuryltrione, tefuryltrione], the “Control effect of B applied alone … (%)” value was determined as 30.8% in the series with weeds (setting [4]) and 45.2% in the series with weeds (setting [5]).
For the compound `Cc1nn(C)cc1C(=O)Oc1c(C(=O)c2ccc(C(F)(F)F)cc2S(C)(=O)=O)c(C)nn1C` [Bipyrazone, bipyrazone], the “Control effect of B applied alone … (%)” value was determined as 24.5% with weeds (setting [4]) and 38.8% in the series with weeds (setting [5]).
With `CN(C(=O)COc1nc2ccccc2s1)c1ccccc1` [Mefenacet, mefenacet], in the series with weeds (setting [6]), the pest or weed control at 150 g/ha came out at 38.4%. Moreover, the pest or weed control at 300 g/ha with weeds (soil, Rotala indica, S, B 300 g a.i./ha, read-out: Control effect of B applied alone in a corresponding dose (%)) was 58.3%.
Consider `Cc1ccc(C2CN(C)C(=O)C2C(=O)Nc2cnn(C)c2Cl)cc1C(F)(F)F` (stereo not drawn) [Compound 56], for which the “Leptochloa chinensis activity level” value with Leptochloa chinensis is given as 9. For the same compound, the “Echinochloa phyllopogon activity level” value in the series with Echinochloa phyllopogon was 6 (Level 6: growth control rate greater than or equal to 70% and less than 80%). Moreover, the “Digitaria sanguinalis activity level” value with Digitaria sanguinalis was determined as 9. Besides, in the series with Echinochloa crusgalli, the “Echinochloa crusgalli activity level” value is on record as 9.
On to `Cc1cccc([C@H]2CN(C)C(=O)[C@@H]2C(=O)Nc2cnn(C)c2C2CC2)c1` [139′], for which, in the series with Leptochloa chinensis, the “Leptochloa chinensis activity level” value was found to be 9. Further, the “Digitaria sanguinalis activity level” value in the series on Digitaria sanguinalis is 7 (Level 7: growth control rate greater than or equal to 80% and less than 90%). Moreover, the “Echinochloa crusgalli activity level” value in the series with Echinochloa crusgalli is listed as 9.
For the compound `CCCOCCN(C(=O)CCl)c1c(CC)cccc1CC` [Pretilachlor, pretilachlor], the pest or weed control at 75 g/ha with weeds (soil, Rotala indica, S, B 75 g a.i./ha, read-out: Control effect of B applied alone in a corresponding dose (%)) is 54.2%. Further, the pest or weed control at 150 g/ha in the series with weeds (setting [6]) worked out at 63.9%.
Take `COc1cc(F)cc([C@H]2CN(C)C(=O)[C@@H]2C(=O)Nc2cnn(C)c2Cl)c1` [298′]: the “Leptochloa chinensis activity level” value with Leptochloa chinensis is 7 (Level 7: growth control rate greater than or equal to 80% and less than 90%). The “Echinochloa phyllopogon activity level” value in the series with Echinochloa phyllopogon was 6 (Level 6: growth control rate greater than or equal to 70% and less than 80%). Further, the “Digitaria sanguinalis activity level” value in the series on Digitaria sanguinalis worked out at 9. The “Echinochloa crusgalli activity level” value with Echinochloa crusgalli is 7 (Level 7: growth control rate greater than or equal to 80% and less than 90%).
Regarding `CC1=C(c2ccccc2)C(=O)N(C(C)(C)c2cc(Cl)cc(Cl)c2)CO1` [Oxaziclomefone, oxaziclomefone], the pest or weed control at 7.5 g/ha in the series on weeds (soil, Paspalum distichum, S, B 7.5 g a.i./ha, read-out: Control effect of B applied alone in a corresponding dose (%)) is 36.9%. In the series with weeds (soil, Paspalum distichum, S, B 15 g a.i./ha, read-out: Control effect of B applied alone in a corresponding dose (%)), the pest or weed control at 15 g/ha is 48.5%.
With `CC(C)Oc1cc(-n2nc(C(C)(C)C)oc2=O)c(Cl)cc1Cl` [Oxadiazon, oxadiazon], the pest or weed control at 30 g/ha in the series with weeds (setting [2]) amounted to 50.5%. Besides, the pest or weed control at 60 g/ha in the series with weeds (soil, Rotala indica, S, B 60 g a.i./ha, read-out: Control effect of B applied alone in a corresponding dose (%)) stood at 68.7%.
In the case of `CCOc1cc(Oc2ccc(C(F)(F)F)cc2Cl)ccc1[N+](=O)[O-]` [Oxyfluorfen, oxyfluorfen], in the series with weeds (soil, Rotala indica, S, B 7.5 g a.i./ha, read-out: Control effect of B applied alone in a corresponding dose (%)), the pest or weed control at 7.5 g/ha was found to be 51%. For the same compound, the pest or weed control at 15 g/ha with weeds (setting [1]) amounted to 69.3%.
With `C#CCN(C)c1c(C#N)cnn1-c1nn2c(c1Cl)CCCC2` [Pyraclonil, pyraclonil], the “Control effect of B applied alone … (%)” value with weeds (setting [5]) is reported as 48.2%; in the series with weeds (Rotala indica, S, B 60 g a.i./ha), 63.4%.
For the compound `CN1CC(c2cc(F)c(F)c(F)c2)C(C(=O)Nc2cnn(C)c2Cl)C1=O` (stereo not drawn) [Compound 114], in the series with Leptochloa chinensis, the “Leptochloa chinensis activity level” value amounted to 9. Besides, the “Echinochloa phyllopogon activity level” value in the series on Echinochloa phyllopogon was 6 (Level 6: growth control rate greater than or equal to 70% and less than 80%). Also, the “Digitaria sanguinalis activity level” value in the series on Digitaria sanguinalis stood at 9. The “Echinochloa crusgalli activity level” value in the series on Echinochloa crusgalli was determined as 9.
Regarding `CN1C[C@H](c2cc(F)cc(F)c2)[C@@H](C(=O)Nc2cnn(C)c2Cl)C1=O` [115′], the “Leptochloa chinensis activity level” value in the series on Leptochloa chinensis is 8 (Level 8: growth control rate greater than or equal to 90% and less than 100%). Besides, the “Digitaria sanguinalis activity level” value in the series on Digitaria sanguinalis is 8 (Level 8: growth control rate greater than or equal to 90% and less than 100%). The “Echinochloa crusgalli activity level” value with Echinochloa crusgalli is 9.
